The results in this text go back to patent US12558348B2, “Bioactive phytochemicals” (Phytoquest Limited, priority 2019, dated 2026).

Marks after values point to notes of the source that are not given here.

The subject of series [1] is murine microglial cell line BV-2. The series is described as follows: Nitrite production by LPS-stimulated BV-2 microglial cells. It is filed as cell-based. The conditions noted are these: 24 hours. As for the experimental part:
idoBR1 was used in cell cultures of murine microglial cell line BV-2 at 0, 20, 40 and 80 μg/ml plus and minus sub-optimal LPS. Production of TNF-α and nitrite was measured after 24 hours.

In a further series the test system is IL-10. In words: IL-10 ELISA in LPS stimulated THP-1 cells. The class given is cell-based, human. The conditions noted are these: for Fold increase in IL-10 levels: vs control = 1.00. Here is the method: The cells in an 80% confluence culture flask were aspirated and centrifuged at 1500 rpm for 5 mins. The cell pellet was then resuspended in 1 ml of RPMI complete media and 1×10^5 cells/well seeded to each well of the 96 well microtiter plate. After 24 hrs incubation, PMA (10 ng/ml) was added to the 96 well plate to differentiate THP-1 cells to determine the TNF-α production, THP-1 cells were pretreated for 1 hr with idoBR1 or cucumber extract-Q-actin (batch no. […] Post incubation, the cell supernatant from each of the wells was aspirated into sterile micro centrifuge tubes and centrifuged at 1000 rpm for 2-3 mins. The cell supernatant was then used for evaluation of presence of cytokines using ELISA.
ELISA plates coated with antibodies for IL-12, IL-1β, or IL-10 (R&D Systems, USA) were used for the following study. To each well 50 μL of Assay Diluent RD1F was added after mixing well. 200 μL of sample (idoBR1 or extract), or control per well was added and covered with an adhesive strip. Following incubation for 2 hours at room temperature each well was aspirated and washed 4 times with Wash Buffer (400 μl). After the last wash, any remaining Wash Buffer was removed by aspirating or decanting. The plates were inverted and blotted against clean paper towels. To each well 200 μl of appropriate human conjugate was added and these then covered with a new adhesive strip and incubated for 1 hour at room temperature. The aspiration/wash was then repeated. 200 μL of Substrate Solution was then added to each well and further incubated for 20 minutes at room temperature protected from light. 50 μL of Stop Solution was added to each well. The colour in the wells was changed from blue to yellow. OD was measured within 30 minutes at 450 nm.
(ELISA stands for enzyme-linked immunosorbent assay.)

The nature of series [2]: Oral availability: idoBR1 in urine after eating cucumbers (GC-MS). The class given is in vivo, human. The following applies: for excretion of idoBR1 in urine: volunteer, roughly 13 mg consumed in cucumbers. As for the experimental part:
Parisien pickling cucumbers (seeds purchased from Lidl 2013) were grown organically and three eaten at midday by each of one volunteer and one volunteer. […] The volunteers ate no Cucurbitaceae food for 15 hours prior to the experiment. Urine samples pre-consumption were collected over 3 hours as t=0 and then samples collected for 9 hours for the […] and 15 hours for the person. The 30 g cucumber sample was homogenised in 50% ethanol (aq) and after 15 hours extraction it was filtered and the idoBR1 fraction bound to cation exchange resin IR120 in the H+ form. After washing the column with water, the material displaced with 2M ammonia solution was dried (52.3 mg) and analysed by GC-MS after trimethylsilylation using Pierce TriSil. The remaining 51 mg of material then had 0.2 mg of castanospermine added for comparative quantification purposes. The entire urine samples were similarly treated using cation exchange resin except the material displaced by ammonia solution was run a second time through the same cation exchange resin (now in the ammonium form) to reduce strong bases (which will bind to IR120 in the ammonium form) and only the unretained material was kept. The urine idoBR1 fractions were dried and made up to 20 ml in water. 500 ul of each was sampled and 0.025 mg of castanospermine added.
This was carried out on a Perkin Elmer Turbomass Gold GCMS. The spectrum of the major peak at 10.33 mins matched the GCMS spectrum of authentic idoBR1, 900288 PhytoQuest Ltd, UK). The relative response factor was calculated between authentic BR1 (900125, PhytoQuest Ltd) and castanospermine is 1:2. Assuming the same response factor, the amount of idoBR1 was estimated as 1.5 mg in the 30 g sample which means that the volunteers consumed roughly 260/30×1 5 mg=13 mg of idoBR1.

The next series concerns phosphorylated p38. In words: Western blot of phosphorylated p38 in LPS-stimulated THP-1 cells. The conditions noted are these: vs LPS = 1.00. It is filed as cell-based, human. Here is the method: (§1) THP-1 cells were cultured in RPMI media supplemented with mercaptoethanol & glutamine to get 80% confluence in culture flasks, then they were aspirated and centrifuged at 1500 rpm for 5 mins. The cell pellet was then resuspended in 1 ml of RPMI complete media and counted conventionally using a hemocytometer. The cells (5×106) were incubated with PMA (10 ng/ml) in separate dishes to differentiate THP-1 cells. To determine the protein expression p38 & p42/44, THP-1 cells were pre-treated for 1 hr with idoBR1-100 μg/ml & 50 μg/ml and cucumber extract (Q-actin batch no. B17CF001)—200 μg/ml & 100 μg/ml, followed by 2 hr LPS (1 μg/ml) stimulation. Post incubation, the cells were harvested and whole protein was isolated.
(§2) Cell pellets were lysed, and the protein concentration was determined using the Bio-Rad protein determination assay (Bio-Rad). Total cell proteins were subjected to 8% polyacrylamide SDS gel electrophoresis followed by transfer onto polyvinylidene difluoride membranes (Thermoscientific). The membranes were probed with either mouse anti-phospho-p38 mAb (Thermoscientific) or mouse anti-phospho-p42/44 mAb (Thermoscientific), followed by horseradish peroxidase-conjugated goat anti-mouse polyclonal antibodies (Thermoscientific). All immunoblots were visualized by ECL (Amersham Biosciences).
For orientation: Immunoblotting shows a protein as a band on a membrane.

Another series relates to THP-1 cells. The series is described as follows: Viability of THP-1 cells (trypan blue uptake or MTT dye conversion). The class given is cell-based, human.
The test system of series [3] is sialidase (including NanH from T. forsythia). In words: Sialidase assay with methylumbelliferyl-N-acetylneuraminic acid. It is filed as biochemical. Here is the method: Sialidase assays used 2.8 mM and 0.28 mM inhibitor (or water without inhibitor) and 2.5 nM sialidase (including NanH from T. forsythia) incubated in the presence of 0.1 mM methylumbelliferyl-N-acetyineuraminic acid, pH 7.2 in 20 mM sodium phosphate buffer. Reactions were stopped at 30 seconds and 60 seconds via addition of pH 10.5 60 mM sodium carbonate buffer. Release of fluorogenic methylumbelliferone (MU) was quantified by measuring fluorescence emission at 450 nm, excitation 350 nm. Percentage sialidase activity was expressed as the change in fluorescence between 30 seconds and 60 seconds compared to that of a reaction without inhibitor. Reactions were carried out in triplicate.

For another series, the system named is phosphorylated ERK 42/44. In words: Western blot of phosphorylated ERK p42/44 in LPS-stimulated THP-1 cells. The conditions noted are these: vs LPS = 1.00. The class given is cell-based, human. As for the experimental part:
as §1, §2

Regarding `O=C(O)[C@@H]1NC[C@H](O)[C@@H](O)[C@@H]1O` [idoBR1, (2R,3R,4R,5S)-3,4,5-trihydroxypiperidine-2-carboxylic acid], the figures for the Nitrite production in series [1] (20 μg/ml + LPS), in series [1] (40 μg/ml + LPS) and in series [1] (80 μg/ml + LPS) were 11* μM, 9** μM and 8** μM, respectively. Also, the IL-10 in the series with IL-10 (12.5 μg/mL) worked out at 19.02 pg/mL; with IL-10 (25 μg/mL), 29.34 pg/mL; in the series with IL-10 (50 μg/mL) it was 37.22 pg/mL; in the series with IL-10 (100 μg/mL), 43.08 pg/mL. Besides, the “Fold increase in IL-10 levels” value with IL-10 (12.5 μg/mL) is 1.34 fold; with IL-10 (25 μg/mL), 2.07 fold; in the series on IL-10 (50 μg/mL), 2.63 fold; in the series with IL-10 (100 μg/mL), 3.04 fold. Moreover, the “conjugation in the urine analysis” value in series [2] (human urine) is “No obvious conjugation”. Besides, the oral availability entry in series [2] (human, eaten cucumber) was “available orally”. The results for the “excretion of idoBR1 in urine” value in series [2] (after 15 hours) and in series [2] (samples collected for 9 hours) were “approximately 2.4 mg” and “approximately 2.1 mg”, respectively. Further, the “Relative expression of p38” value with phosphorylated p38 (50 μg/ml) worked out at 0.88; in the series with phosphorylated p38 (100 μg/ml), 0.80. For the same compound, the “viability of THP-1 cells” value with THP-1 cells is listed as “did not significantly alter”. Further, the figures for the “inhibition of the sialidase” value in series [3] (0.28 mM inhibitor) and in series [3] (2.8 mM inhibitor) were 42% and 36%, respectively. For the same compound, the “Relative expression of p42/44” value in the series on phosphorylated ERK 42/44 (50 μg/ml) stood at 0.80; with phosphorylated ERK 42/44 (100 μg/ml), 0.76.
